In PubChem BioAssay (NCI):
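Cultured in 96-well plates, cells were exposed to test compound for 48 hours across five concentrations. TGI is the concentration that stops growth completely.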

Legend:
Test in all cases: DTP human tumour cell line panel, 48 h
HCT-15 colon = test system: HCT-15 colon
OVCAR-5 ovarian = test system: OVCAR-5 ovarian
UACC-257 melanoma = test system: UACC-257 melanoma
SW-620 colon = test system: SW-620 colon
RXF 393 renal = test system: RXF 393 renal
SN12C renal = test system: SN12C renal
SK-OV-3 ovarian = test system: SK-OV-3 ovarian
HL-60(TB) leukemia = test system: HL-60(TB) leukemia
BT-549 breast = test system: BT-549 breast
CCRF-CEM leukemia = test system: CCRF-CEM leukemia
MALME-3M melanoma = test system: MALME-3M melanoma

Row | SMILES | TGI (HCT-15 colon) [µM] | TGI (OVCAR-5 ovarian) [µM] | TGI (UACC-257 melanoma) [µM] | TGI (SW-620 colon) [µM] | TGI (RXF 393 renal) [µM] | TGI (SN12C renal) [µM] | TGI (SK-OV-3 ovarian) [µM] | TGI (HL-60(TB) leukemia) [µM] | TGI (BT-549 breast) [µM] | TGI (CCRF-CEM leukemia) [µM] | TGI (MALME-3M melanoma) [µM]
1 | NCCCC(N)C(=O)O (centres undefined) | > 100 | > 100 | > 100 | > 100 | > 100 | > 100 | > 100 | > 100 | > 100 | > 100 | > 100
2 | COC(c1ccc(C(C)(C)C)cc1)(c1ccc(C(C)(C)C)cc1)c1cc(C(O)(c2cc(C(OC)(c3ccc(C(C)(C)C)cc3)c3ccc(C(C)(C)C)cc3)c(C)cc2C)c2cc(C(OC)(c3ccc(C(C)(C)C)cc3)c3ccc(C(C)(C)C)cc3)c(C)cc2C)c(C)cc1C | > 100 | > 100 | > 100 | > 100 | > 100 |  | > 100 | > 100 | > 100 | > 100 | > 100
3 | CN1C(=O)CN(NC(=O)C2=C(O)c3ccc(Br)cc3S(=O)(=O)N2)C1=S | > 100 | > 100 | > 100 | > 100 | > 100 | > 100 | > 100 | > 100 | > 100 | 51.1 | > 100
4 | CCOC(=O)c1c(SCCN2CCCC2)n(-c2ccccc2)c(=S)n(-c2ccccc2)c1=O | 5.54 | > 59.5 | 3.34 | 7.58 | 3.36 | 3.18 | 34.5 | 3.52 | 13.9 | 4.14 | 3.36
5 | O=C1C(C=NCCc2c[nH]c3ccccc23)C(C(F)(F)F)=NN1c1nc2ccccc2s1 (centres undefined) | > 100 | 78.8 | 41.9 | > 100 | 48.5 | > 100 | 76.2 | 47.8 | 66.3 | 57.8 | > 100
6 | CCN(CC)CCCn1c(=O)c2cccnc2n2c3c(=O)n(C)c(=O)n(C)c3nc12 | > 100 | > 100 | > 100 | > 100 | > 100 | > 100 | > 100 | > 100 | > 100 | > 100 | > 100
7 | O=C1C(Br)=Cc2c(Cl)sc(Cl)c21 | 18.6 | 36 | > 28.5 | 12.9 | 6.17 | 18.4 | 35.8 | 6.3 | 88.4 | > 100 | 29
8 | CO/N=C1/c2sccc2[C@H](NC(=O)CNC(=O)OC(C)(C)C)[C@@H]1O | > 100 | > 100 | > 100 | > 100 | > 100 | > 100 | > 100 | > 100 | > 100 | > 100 | > 100
9 | CC1=CC=CC(C)(C)CC1(O[Si](C)(C)C)C(F)(F)F (centres undefined) | > 100 | > 100 | > 100 | > 100 | > 100 | > 100 | > 100 | > 100 | > 100 | > 100 | > 100
10 | Cc1ccc(C(=O)Nc2ccc(CP(=O)(O)O)cc2)cc1NC(=O)c1cccc(NC(=O)Nc2cccc(C(=O)Nc3cc(C(=O)Nc4ccc(CP(=O)(O)O)cc4)ccc3C)c2)c1 | > 100 | > 100 | > 100 | > 100 | > 100 | > 100 | > 100 | > 100 | > 100 | > 100 | > 100
11 | Cc1cc(O)cc(O)c1N=Nc1ccc([N+](=O)[O-])cc1 | 28.9 | 85.1 | 79.5 | > 100 | 40.5 | 54 | > 100 | > 100 | 54.1 | > 100 | 87.7
12 | CSc1c(C(=O)Nc2ccc(C)cc2)c(N)[nH]c(=O)c1C#N | > 100 | > 100 | > 100 | > 100 | > 100 | > 100 | > 100 | > 100 | > 100 | > 100 | > 100
13 | CC(=O)OCC1OC(n2c(=S)[nH]c(-c3ccccc3)c(C#N)c2=O)C(OC(C)=O)C(OC(C)=O)C1OC(C)=O (centres undefined) | > 100 | > 100 | > 100 | > 100 | > 100 | > 100 | > 100 | > 100 | > 100 | > 100 | > 100
14 | CCOC(=O)c1cnc2[nH]ccn2c1=O | > 10 | > 10 | > 10 | > 10 | > 10 | > 10 | > 10 | > 10 | > 10 | > 10 | > 10
15 | COc1cc2c(cc1OC)C(=O)/C(=C/c1cc(C)c(O)c(C)c1)C2 | > 100 | 13.5 | > 100 | > 100 | 0.439 | > 100 | > 100 | > 100 | > 100 | > 100 | 40.1
